Source: PubChem BioAssay AID248 (DTP/NCI, 2004)
Inconclusive results and toxic doses are left out. Rule as the data show it: active = T/C of 150% or more; inactive = T/C below 125%.

Test system: L1210 leukemia ip in BDF1 mice, survival T/C
Assay: NCI In Vivo Anticancer Drug Screen. Data for tumor model L1210 Leukemia (intraperitoneal) in B6D2F1 (BDF1) mice
Conditions: endpoint: mean survival time, higher = longer survival
Summary of the method: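 Value reflects the ratio of survival in compound-treated mice to survival in vehicle-treated controls, with both groups carrying the same transplanted tumor.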

[1] = dose: 100.0 mg/kg/injection, schedule: Q01DX009 (ip), vehicle: Klucel (hydroxypropylcellulose) (HPC)
[2] = dose: 200.0 mg/kg/injection, schedule: Q01DX009 (ip), vehicle: Klucel (hydroxypropylcellulose) (HPC)

Measured: T/C

Cc1cnc2c(=O)[nH]c(N)nc2n1
inactive: dose: 25.0 mg/kg/injection, schedule: Q04DX002 (ip), vehicle: Klucel (hydroxypropylcellulose) (HPC) 97 % of control | dose: 50.0 mg/kg/injection, schedule: Q04DX002 (ip), vehicle: Klucel (hydroxypropylcellulose) (HPC) 113 % of control | dose: 100.0 mg/kg/injection, schedule: Q04DX002 (ip), vehicle: Klucel (hydroxypropylcellulose) (HPC) 100 % of control

C=CCC1(C(C)C=C)C(=O)NC(=O)NC1=O (centres undefined)
inactive: dose: 75.0 mg/kg/injection, schedule: Q01DX001 (ip), vehicle: carboxymethylcellulose (CMC) 98 % of control | dose: 150.0 mg/kg/injection, schedule: Q01DX001 (ip), vehicle: carboxymethylcellulose (CMC) 91 % of control | dose: 300.0 mg/kg/injection, schedule: Q01DX001 (ip), vehicle: carboxymethylcellulose (CMC) 96 % of control

S=c1nc[nH]c2c1ncn2C1OC(COCc2ccccc2)C(OCc2ccccc2)C1OCc1ccccc1 (centres undefined)
inactive: dose: 50.0 mg/kg/injection, schedule: Q01DX001 (ip), vehicle: saline 93 % of control | dose: 100.0 mg/kg/injection, schedule: Q01DX001 (ip), vehicle: saline 102 % of control | dose: 200.0 mg/kg/injection, schedule: Q01DX001 (ip), vehicle: saline 93 % of control | dose: 400.0 mg/kg/injection, schedule: Q01DX001 (ip), vehicle: saline 96 % of control

O=C(O)c1ccccc1SCCO
inactive: dose: 100.0 mg/kg/injection, schedule: Q01DX009 (ip), vehicle: saline 109 % of control | dose: 200.0 mg/kg/injection, schedule: Q01DX009 (ip), vehicle: saline 94 % of control | dose: 400.0 mg/kg/injection, schedule: Q01DX009 (ip), vehicle: saline 95 % of control

NS(=O)(=O)c1ccc(N=Cc2ccc3c(c2)OCO3)cc1
inactive: [1] 94 % of control | [2] 92 % of control | dose: 400.0 mg/kg/injection, schedule: Q01DX009 (ip), vehicle: Klucel (hydroxypropylcellulose) (HPC) 97 % of control

CC(C)NC(N)=O
inactive: dose: 87.5 mg/kg/injection, schedule: Q01DX009 (ip), vehicle: saline 101 % of control | dose: 175.0 mg/kg/injection, schedule: Q01DX009 (ip), vehicle: saline 101 % of control | dose: 350.0 mg/kg/injection, schedule: Q01DX009 (ip), vehicle: saline 101 % of control

COC(=O)c1ccccc1Nc1ccccc1[N+](=O)[O-]
inactive: dose: 75.0 mg/kg/injection, schedule: Q04DX003 (ip), vehicle: Klucel (hydroxypropylcellulose) (HPC) 101 % of control | dose: 100.0 mg/kg/injection, schedule: Q01DX001 (ip), vehicle: Klucel (hydroxypropylcellulose) (HPC) 100 % of control | dose: 150.0 mg/kg/injection, schedule: Q04DX003 (ip), vehicle: Klucel (hydroxypropylcellulose) (HPC) 87 % of control | dose: 200.0 mg/kg/injection, schedule: Q01DX001 (ip), vehicle: Klucel (hydroxypropylcellulose) (HPC) 95 % of control | dose: 300.0 mg/kg/injection, schedule: Q04DX003 (ip), vehicle: Klucel (hydroxypropylcellulose) (HPC) 90 % of control | dose: 400.0 mg/kg/injection, schedule: Q01DX001 (ip), vehicle: Klucel (hydroxypropylcellulose) (HPC) 113 % of control

CCCCCCCCC/C(C)=N\NC(=O)c1ccccc1
inactive: dose: 100.0 mg/kg/injection, schedule: Q04DX003 (ip), vehicle: Klucel (hydroxypropylcellulose) (HPC) 105 % of control | dose: 200.0 mg/kg/injection, schedule: Q04DX003 (ip), vehicle: Klucel (hydroxypropylcellulose) (HPC) 92 % of control | dose: 400.0 mg/kg/injection, schedule: Q04DX003 (ip), vehicle: Klucel (hydroxypropylcellulose) (HPC) 97 % of control

CCn1c(N)c(N)c(=O)[nH]c1=S
inactive: dose: 100.0 mg/kg/injection, schedule: Q04DX003 (ip), vehicle: saline with Tween-80 86 % of control | dose: 200.0 mg/kg/injection, schedule: Q04DX003 (ip), vehicle: saline with Tween-80 93 % of control | dose: 400.0 mg/kg/injection, schedule: Q04DX003 (ip), vehicle: saline with Tween-80 86 % of control

O=C(/C=C/c1ccccc1Cl)c1ccccc1
inactive: dose: 50.0 mg/kg/injection, schedule: Q01DX009 (ip), vehicle: Klucel (hydroxypropylcellulose) (HPC) 99 % of control | [1] 92 % of control | [2] 96 % of control
